Values of other authors as cited in article PMC7287799 (Molecules, 2020).

System: E. coli IMPDH

NC(=O)c1ncn([C@@H]2O[C@H](CO)[C@@H](O)[C@H]2O)c1O [Mizoribine]
Ki: 500 nM
